In patent US6013621A, “Method of treating psychosis and/or hyperactivity” (The Rockfeller University, priority 1997, dated 2000):
pEC50: −log10 of the molar value. Values joined by “and” are separate entries in the source; they are usually repeats but may differ in a detail not shown here. Identical values can stand only once. Like-named read-outs stand apart in the source and are kept apart here.

Legend:
[1] = tested on: DARPP-32 phosphorylation; test: DARPP-32 phosphorylation in rat neostriatal slices (FIG. 9); assay type: cell-based; conditions: forskolin 10 μM plus FK506 at various concentrations
Description: FIG. 9. FK506 increases the level of DARPP-32 phosphorylation in neostriatal slices. Rat neostriatal slices were incubated in the absence (control) or presence of forskolin (10 μM) alone; or forskolin and FK506 using the various concentrations shown.

[2] = prepulse inhibition (PPI) of the startle reflex in mice; assay type: in vivo
Source text: Chambers that are used to assess startle are housed in a sound-attenuated room with a 60 dB(A) ambient noise level. Such chambers consist of a Plexiglass cylinder 8.2 cm in diameter resting on a 12.5×25.5 cm Plexiglass frame within a ventilated enclosure. Acoustic noise bursts are presented via a speaker mounted 24 cm above the animal. A piezoelectric accelerometer mounted below the Plexiglass frame detects and transduces motion within the cylinder. The delivery of acoustic stimuli is controlled by a microcomputer. Startle amplitude is defined as the average of 100 readings. Background noise and all acoustic stimuli are delivered through a speaker (frequency response between 0.5 and 16 Khz) in a chamber. The test session consists of giving: (i) a startle stimulus alone (a 118 dB [A] 40 ms broad band burst); or (ii) no stimulation; or (iii) a startle stimulus preceded 100 ms earlier by a prepulse (a 70 dB [A] 20 ms broad band burst). The amount of PPI is expressed as the percentage decrease in the startle response caused by the presentation of the prepulse. The amount of PPI is calculated using the following equation: [(startle amplitude caused by pulse alone minus startle amplitude caused by pulse preceded by prepulse)/(startle amplitude caused by pulse alone)]×100.

[3] = Begley et al., 1990; cited from earlier work
[4] = tested on: thr^34 -phosphorylated DARPP-32; test: phospho-DARPP-32 immunoblot in mouse neostriatal slices; assay type: cell-based; conditions: for increase in the level of phosphorylated DARPP-32 over the already high basal levels: Ca^2+ -free/EGTA medium; for increase in the level of phosphorylated DARPP-32: vs untreated slices
Description: (§1) Preparation and incubation of striatal slices. Male C57BL/6 mice (5-8 weeks old) were sacrificed by decapitation. The brains of the decapitated mice were rapidly removed and placed in ice-cold, oxygenated Krebs-HCO3 -buffer (124 mM NaCl, 4 mM KCl, 26 mM NaHCO3, 1.5 mM CaCl2, 1.25 mM KH2 PO4, 1.5 mM MgSO4 and 10 mM D-glucose, pH 7.4). Coronal slices (350 μm) were prepared using a vibratome. Striatum and nucleus accumbens were dissected from the slices in ice-cold Krebs-HCO3 - buffer. Each slice was placed in a polypropylene incubation tube with 2 ml of fresh Krebs-HCO3 - buffer containing adenosine deaminase (10 μg/ml). The slices were preincubated at 30° C. under constant oxygenation with 95 % O2 /5 % CO2 for 60 minutes. The buffer was replaced with fresh Krebs-HCO3 -buffer after 30 minutes of preincubation. In some experiments, slices were incubated in Ca^2+ -free/EGTA medium (124 mM NaCl, 4 mM KCl, 26 mM NaHCO3, 1.25 mM KH2 PO4, 3.0 mM MgSO4, 10 mM D-glucose and I mM EGTA, pH 7.4) for 20 minutes after 60 minutes of preincubation in Krebs-HCO3 - buffer. Slices were treated with drugs as specified in each experiment.
(§2) Immunoblotting. Frozen tissue samples were sonicated in boiling 1% SDS and boiled for an additional 10 minutes. Small aliquots of the homogenate were retained for protein determination by the BCA protein assay method (Pierce) using bovine serum albumin as a standard. […] The membranes were immunoblotted using a monoclonal antibody (mAb-23; 1:750 dilution) [Snyder et al., (1992)], which is a phosphorylation state-specific antibody raised against a DARPP-32 peptide containing phospho-thr^34, the site phosphorylated by cAMP-dependent protein kinase. A monoclonal antibody (C24-5a; 1:7500 dilution) generated against DARPP-32 (Hemmings and Greengard, 1986), which is not phosphorylation state-specific, was used to estimate the total amount of DARPP-32 in samples.
(§3) Data were analyzed by Student's t -test with significance defined as p<0.05.

[5] = treatment with a D1 antagonist, Karlsson et al., 1995; cited from earlier work
[6] = tested on: thr^34 -phosphorylated DARPP-32; test: phospho-DARPP-32 immunoblot in nucleus accumbens slices; assay type: cell-based, mouse
Description: as §1, §2, §3

## C=CC[C@@H]1/C=C(\C)C[C@H](C)C[C@H](OC)[C@H]2O[C@@](O)(C(=O)C(=O)N3CCCC[C@H]3C(=O)O[C@H](/C(C)=C/[C@@H]3CC[C@@H](O)[C@H](OC)C3)[C@H](C)[C@@H](O)CC1=O)[C@H](C)C[C@@H]2OC [FK506]
[1]
  effect on the level of DARPP-32 phosphorylation: increases DARPP-32 phosphorylation in a dose-dependent manner
[2]; D2 agonist and FK506 concurrently, FK506 intravenously 1 to 1000 nM
  effect on the reduction of PPI mediated by quinpirole: blocks the reduction of PPI mediated by quinpirole
[2]; FK506 alone
  effect on the degree of PPI, FK506 alone: can increase the degree of PPI
[3]
  crossing of the blood-brain barrier: effectively crosses the blood-brain barrier

## C[C@]12N[C@H](Cc3ccccc31)c1ccccc12 [MK801]
[4]
  effect on the D2 receptor (quinpirole) decrease of DARPP-32 phosphorylation: not blocked
  effect on the basal level of phosphorylated DARPP-32: increased
  level of phospho-DARPP-32, MK801 (+): 0.247 ± 0.044
[4]; MK801 100 μM, NMDA 100 μM
  effect on the NMDA antagonism of the SKF82526-induced increase of phosphorylated DARPP-32: abolished

## CN[C@H](CC(=O)O)C(=O)O [NMDA]
[4]
  effect on the SKF82526-stimulated level of phosphorylated DARPP-32: antagonized
[4]; discussion of Table 2 data
  decrease in SKF 82526-induced phosphorylation of DARPP-32: 100%

## CN1CCc2cc(Cl)c(O)cc2[C@@H](c2ccccc2)C1 [SCH23390]
[4]
  effect on the SKF82526-induced DARPP-32 phosphorylation (D1 antagonist): abolished

## CN1CCc2cc(Cl)c(O)cc2[C@H]2c3ccccc3CC[C@@H]21 [SCH39166]
[5]
  effect on the symptoms of schizophrenia: does not improve but actually worsens the symptoms of schizophrenia

## Oc1ccc(C2CNCCc3c2cc(O)c(O)c3Cl)cc1 (centres unmarked) [SKF82526]
[4]
  level of phospho-DARPP-32, TTX (+): 5.492 ± 0.780
  level of phospho-DARPP-32, TTX (-): 3.282 ± 0.575
  increase in the level of phosphorylated DARPP-32 over the already high basal levels: 1.55±0.12 fold
[4]; Mus musculus, dose-dependent increase, read-out: half-maximal effect on DARPP-32 phosphorylation
  pEC50: ~7.00
[4]; SKF82526 1 μM alone
  increase in the level of phosphorylated DARPP-32: 5.37±0.99 fold and 9.36±2.06 fold
[4]; Table 1A, SKF82526 1 μM for 5 min, normalized to control
  level of phospho-DARPP-32, Cyclosporin A (-), 5 min: 7.14 ± 0.97
[4]; Table 1A, SKF82526 1 μM for 30 min, normalized to control
  level of phospho-DARPP-32, Cyclosporin A (-), 30 min: 3.07 ± 0.66
[4]; Table 1A, cyclosporin A 5 μM preincubation 60 min, SKF82526 1 μM for 5 min, normalized to control
  level of phospho-DARPP-32, Cyclosporin A (+), 5 min: 31.6 ± 2.8
[4]; Table 1A, cyclosporin A 5 μM preincubation 60 min, SKF82526 1 μM for 30 min, normalized to control
  level of phospho-DARPP-32, Cyclosporin A (+), 30 min: 28.0 ± 3.1
[4]; Table 1C, cyclosporin A 5 μM 60 min, quinpirole 1 μM 5 min preincubation, SKF82526 1 μM 5 min, normalized to control
  level of phospho-DARPP-32, Cyclosporin A (+): 21.1 ± 2.3
[4]; Table 1C, quinpirole 1 μM 5 min preincubation, SKF82526 1 μM 5 min, normalized to control
  level of phospho-DARPP-32, Cyclosporin A (-): 10.61 ± 2.28
[4]; Table 2, MK801 100 μM from 0 min, NMDA 100 μM or quinpirole 1 μM at 10 min, SKF82526 1 μM at 15 min of 20 min, normalized to SKF82526 alone
  level of phospho-DARPP-32, MK801 (+): 1.115 ± 0.078
[4]; Table 2, NMDA 100 μM or quinpirole 1 μM at 10 min, SKF82526 1 μM at 15 min of 20 min, normalized to SKF82526 alone
  level of phospho-DARPP-32, MK801 (-): 1.000
[6]; SKF82526 1 μM
  increase in the level of phosphorylated DARPP-32: about 7 fold

## NC1=N[C@H](O)[C@H]2[C@H]3O[C@]4(O)O[C@@H]([C@@H](O)[C@@]2(N1)[C@@H]4O)[C@]3(O)CO [TTX, tetrodotoxin]
[4]
  effect on the SKF82526-stimulated level of phosphorylated DARPP-32: increased
  effect on the basal level of phosphorylated DARPP-32: increased
  effect on the effect of quinpirole on DARPP-32 phosphorylation: failed to reduce
  level of phospho-DARPP-32, TTX (+): 1.000

## NCCc1ccc(O)c(O)c1 [dopamine]
[4]; dopamine 100 μM plus nomifensine 10 μM
  increase in the level of phosphorylated DARPP-32: 6.64±1.36 fold

## C=C[C@@]1(C)CC(=O)[C@]2(O)[C@@]3(C)[C@@H](O)CCC(C)(C)[C@@H]3[C@H](O)[C@H](OC(C)=O)[C@@]2(C)O1 [forskolin]
[4]
  increase in the level of phosphorylated DARPP-32 over the already high basal levels: 2.04±0.22 fold
[4]; forskolin 10 μM, 8-bromo-cAMP 1 mM
  increase in the level of phosphorylated DARPP-32 after 5 minutes: 20 fold

## CCCN1CCC[C@@H]2Cc3n[nH]cc3C[C@H]21 [quinpirole]
[4]
  effect on the basal level of phosphorylated DARPP-32: decreased

## CCN1CCC[C@H]1CNC(=O)c1c(O)c(Cl)cc(Cl)c1OC [raclopride]
[4]
  effect on the basal level of phosphorylated DARPP-32: slightly increased
[4]; raclopride 1 μM
  effect on the ability of quinpirole to decrease the SKF82526-stimulated level of phosphorylated DARPP-32: dramatically reduced
[4]; raclopride 1 μM, quinpirole (100 μM)
  effect on the ability of quinpirole to decrease the basal level of phosphorylated DARPP-32: blocked
[6]; raclopride 1 μM
  effect on the quinpirole-induced decrease in SKF82526-stimulated DARPP-32 phosphorylation: abolished
  effect on the quinpirole-induced decrease in basal DARPP-32 phosphorylation: abolished
[6]; raclopride alone 1 μM
  effect on the basal level of phosphorylated DARPP-32: small increase

## C/C=C(/C)C(=O)O[C@H]1C(C)=C2[C@H]([C@@H]1OC(=O)CCCCCCC)[C@@](C)(OC(C)=O)C[C@H](OC(=O)CCC)[C@@]1(O)[C@H]2OC(=O)[C@@]1(C)O [thapsigargin]
[4]; thapsigargin 5 μM added 5 min before SKF82526 1 μM for 5 minutes
  reduction of the level of phosphorylated DARPP-32 seen with SKF82526: 46.9±7.7%
